Experimental data published in patent US20240252469A1, “Carnosine Analogs for Use in the Treatment of Metabolic Disorders” (priority 2021, published 2024).

Assays:
[1] = tested on: INS-1 pancreatic β-cells; test: Insulin secretion from INS-1 pancreatic β-cells (ELISA, normalised to cellular protein); type: cell-based; settings: 100 μM ester in GLT RPMI-1640 medium for 5 days; 2 h secretagogue cocktail stimulation
Protocol: INS-1 pancreatic B-cells were cultured for 5 days in standard RPMI-1640 tissue culture media or GLT RPMI-1640 media. The media were either used without further supplementation (used as controls) or were independently supplemented with either 10 mM of L-carnosine or with 100 μM of a carnosine ester (L-carnosine methyl ester, L-carnosine ethyl ester, and L-carnosine iso-propyl ester investigated). INS-1 cells were then treated with KRB or KRB supplemented with secretagogue cocktail (13.5 mM glucose, 1 μM phorbol 12-myristate 13-acetate, 1 mM isobutyl-methylxanthine, 1 mM tolbutamide, 10 mM leucine, 10 mM glutamine) as a stimulant of insulin secretion for 2 h. Insulin secretion was determined by ELISA assay, with data normalised to cellular protein content.

[2] = tested on: C2C12 skeletal muscle cells; test: Reactive species scavenging ability (DCFDA fluorescence); type: cell-based; settings: 100 μM ester for 1 h after 5 days culture in GLT RPMI-1640 media
Protocol: C2C12 muscle cell myotubes were cultured for 5 days in standard RPMI-1640 tissue culture media or GLT RPMI-1640 media. Corresponding media were then replaced and supplemented independently with 100 μM of a carnosine ester (L-carnosine methyl ester, L-carnosine ethyl ester, and L-carnosine iso-propyl ester investigated) for 1 h. Non-supplemented standard and GLT RPMI-1640 media were also retained as controls. Cells were thereafter washed 3 times in KRB and 20 μM 2′,7′-dichlorofluorescein diacetate (DCFDA), a cell permeant fluorogenic dye that measures hydroxyl, peroxyl and other ROS, was loaded for 1 h. Reactive species detection was measured via fluorescence, with excitation at 495 nm and emission at 530 nm.

[3] = tested on: C2C12 skeletal muscle cells; test: Toxicity testing of carnosine esters (Calcein AM cell viability); type: cell-based; settings: 100 μM ester in GLT RPMI-1640 medium, 5 days culture, versus control medium
Protocol: C2C12 muscle cell myotubes were cultured for 5 days in the following four culture media: a control RPMI-1640 medium; glucolipotoxic (GLT) RPMI-1640 medium (28 mM glucose, 200 μM palmitic acid and 200 μM oleic acid) supplemented with 100 μM of L-carnosine methyl ester; GLT RPMI-1640 medium supplemented with 100 μM of L-carnosine ethyl ester; and GLT RPMI-1640 medium supplemented with 100 μM of L-carnosine iso-propyl ester. Following culture, media were aspirated and cells washed 3 times in Krebs-Ringer buffer (KRB). A final concentration of 5 μM Calcein AM Cell Viability Dye (ThermoFischer) in KRB was loaded for 1 h before washing again with KRB. Cell viability was measured via fluorescence, with excitation and emission at 490 nm and 520 nm, respectively.

[4] = tested on: High fat-fed spontaneously diabetic mice; test: Glucose tolerance test in an in vivo model of type-2 diabetes; settings: 45 mg/kg body weight/day in diet
Protocol: High fat-fed spontaneously diabetic mice were used as an animal model of type-2 diabetes. A glucose tolerance test was performed on three sets of mice, wherein the mice were initially fasted for 6 h. A […] glucose solution was then administered to the three sets of mice in their drinking water and their blood glucose concentrations (mmol/L) monitored over a period of 2 h. The following three sets of mice were used in the study: • Non-diabetic, non-high fat-fed mice. • Spontaneously diabetic high fat-fed mice. • Spontaneously diabetic high fat-fed mice whose diet also included 45 mg/kg body weight/day of L-carnosine iso-propyl ester.
Spontaneously diabetic high fat-fed mice were defined as mice which had been fed the following high fat diet from Research Diets: (60% fat; D12492). Non-diabetic, non-high fat-fed mice were used as a control and were fed the following low fat diet from Research Diets: (10% fat, D12450B). The body weights of the mice on the two different diets were measured throughout.

Row | SMILES | insulin secretion in cells exposed to glucolipotoxicity (GLT) [1] | intracellular reactive species (GLT-associated reactive species levels) [2] | cell viability [3] | toxic effects on the animals ([4]; high fat-fed mice) | glucose tolerance ([4]; spontaneously diabetic high fat-fed mice, 6 h fast) | blood glucose concentrations at the end of the study (2 h) ([4]; versus high fat-fed mice only administered the high fat diet)
1 | CCOC(=O)[C@H](Cc1cnc[nH]1)NC(=O)CCN [L-carnosine ethyl ester] | reverse glucolipotoxic inhibition of insulin secretion | return to control values | non-toxic |  |  | 
2 | CC(C)OC(=O)[C@H](Cc1cnc[nH]1)NC(=O)CCN [L-carnosine iso-propyl ester] | reverse glucolipotoxic inhibition of insulin secretion | return to control values | non-toxic | no toxic effects | significantly improved glucose tolerance | significantly lower
3 | COC(=O)[C@H](Cc1cnc[nH]1)NC(=O)CCN [L-carnosine methyl ester] | reverse glucolipotoxic inhibition of insulin secretion | return to control values | non-toxic |  |  | 
